Laboratory results published in patent publication US20090022686A1, “PHARMACEUTICAL COMPOSITIONS FOR THE TREATMENT OF SYSTEMIC INFLAMMATORY RESPONSE SYNDROME” (Boehringer Ingelheim Pharma GmbH & Co. KG, priority 2002, published 2009).
Marks after values point to notes of the source that are not given here.

Legend:
[1] = test system: Systemic Inflammatory Response Syndrome (SIRS): Intravenous Lipopolysaccharide Stimulation; assay: Animal model for SIRS: intravenous LPS bolus stimulation in rats (Method 1); type: in vivo; conditions: for IL-6 / TAT: rat blood, ELISA
Experimental: Animal Model for Systemic Inflammatory Response Syndrome (SIRS): Intravenous Lipopolysaccharide Stimulation (Modified According to Isobe et al. Circulation 2001; 104: 1171-1175)
Rats (male, approx. 300 g CrlGlxBrlHan:Wi) were anaesthetised with pentobarbital (60 mg/kg i.p.). To maintain the anaesthetic a pentobarbital drip was set up (22.5 mg/kg/h i.p.). The carotid artery was cannulated for taking blood samples, the left jugular vein was cannulated for administration of the substance and the right jugular vein was cannulated for administering the LPS. The administration of (R)-2-[…]-5-[1-(carboxymethylamino)-1-(pyrrolidinocarbonyl)-ethyl]-benzimidazole (0.1 mg/kg/h) was started at time t=−60 min as a continuous drip and maintained until the end of the experiment. One hour after the start of the infusion of the substance, a single bolus of LPS was administered (lipopolysaccharide of E. coli serotype 0127:B8 Sigma L-3129 5 mg/kg i.v. bolus) at time t=0 min. In order to determine the coagulation and inflammation parameters, blood was taken via the arterial cannulae at times a) before the infusion of placebo or (R)-2-(4-amidinophenylaminomethyl)-1-methyl-5-[1-(carboxymethylamino)-1-(pyrrolidinocarbonyl)-ethyl]-benzimidazole (−60 minutes), b) before administration of the LPS bolus (0 minutes) and c) 240 minutes after the administration of LPS. From the blood samples the TAT complex (thrombin-antithrombin) and interleukin-6 (IL-6) were determined by ELISA as parameters of a systemic inflammatory reaction.

[2] = test system: Systemic Inflammatory Response Syndrome (SIRS): Intravenous Lipopolysaccharide Stimulation; assay: Animal model for SIRS: continuous intravenous LPS infusion in rats (Method 2); type: in vivo
Experimental: Animal Model for Systemic Inflammatory Response Syndrome (SIRS): Intravenous Lipopolysaccharide Stimulation (Modified According to Aoki et al. Drug Res. 50: 809; 2000 and Yamazaki et al. Blood Coag. Fibrinol. 10: 321; 1999)
Rats (male, approx. 300 g CrlGlxBrlHan:Wi) were anaesthetised with pentobarbital (60 mg/kg i.p.). To maintain the anaesthetic a pentobarbital drip was set up (22.5 mg/kg/h i.p.). The left jugular vein was cannulated for administration of the substance and the right jugular vein was cannulated for administering the LPS. LPS was given as a continuous infusion for 4 hours (lipopolysaccharide of E. coli serotype 0127:B8 Sigma L-3129 7.5 mg/kg/h). (R)-2-(4-amidinophenylaminomethyl)-1-methyl-5-[1-(carboxymethylamino)-1-(pyrrolidinocarbonyl)-ethyl]-benzimidazole (0.1 mg/kg/h) was administered as a continuous infusion (100 μg/kg/h) one hour after the start of the LPS infusion with a total duration of 3 hours. In order to determine the inflammation parameters, blood was taken from the abdominal artery after a total test period of four hours. From the blood samples the TAT complex (thrombin-antithrombin), interleukin-1β (IL-1β), interleukin-6 (IL-6) and the tumour necrosis factor alpha (TNF-alpha) were determined by ELISA as parameters of a systemic inflammatory reaction. Alanine-aminotransferase (ALT) and creatinin served as enzyme parameters for organ damage to the liver and kidneys.

[3] = 0 min (before LPS bolus, 1 h after start of infusion), active substance 100 μg/kg/h
[4] = +240 min after LPS 5 mg/kg i.v. bolus, active substance 100 μg/kg/h
[5] = result in words, LPS bolus, 0.1 mg/kg/h
[6] = −60 min (before start of infusion), LPS + active substance 100 μg/kg/h continuous drip
[7] = LPS 7.5 mg/kg/h × 4 h + 100 μg/kg/h infusion from 1 h after LPS start for 3 h, blood after 4 h, mean ± standard deviation
[8] = result in words, continuous LPS infusion, 0.1 mg/kg/h

## Cn1c(CNc2ccc(C(=N)N)cc2)nc2cc([C@@](C)(NCC(=O)O)C(=O)N3CCCC3)ccc21 [BIBT 986, (R)-2-(4-amidinophenylaminomethyl)-1-methyl-5-[1-(carboxymethylamino)-1-(pyrrolidinocarbonyl)-ethyl]-benzimidazole]
[1]; [3]
  IL-6: 0.143 ± 0.083 ng/mL
  TAT: 2.21 ± 0.79 ng/mL
[1]; [4]
  IL-6: 43.454 +/− 2.975 * ng/ml
  TAT: 6.52 +/− 1.33 * ng/ml
[1]; [5]
  plasma levels of IL-6 versus untreated LPS animals: significant (p<0.02) reduction
  plasma levels of the TAT complex versus untreated LPS animals: significantly lower than in the untreated LPS animals (p<0.02) and were within the control range
[1]; [6]
  IL-6: 0.139 ± 0.086 ng/mL
  TAT: 2.33 ± 0.89 ng/mL
[2]; [7]
  IL-1β: 4036 ± 1000 pg/mL
  IL-6: 89579 ± 10069 pg/mL
  TNF-alpha: 1003 ± 292 pg/mL
[2]; kidney damage marker, LPS 7.5 mg/kg/h × 4 h + 100 μg/kg/h infusion for 3 h, blood after 4 h, mean ± standard deviation
  creatinin: 40.1 ± 1.8 µmol/L
[2]; liver damage marker, LPS 7.5 mg/kg/h × 4 h + 100 μg/kg/h infusion for 3 h, blood after 4 h, mean ± standard deviation
  ALT: 44.2 ± 7.1 U/ml
[2]; [8]
  ALT versus untreated control animals: not significantly different from untreated control animals
  TAT complex versus LPS-treated animals: significant lowering
  creatinin versus untreated control animals: not significantly different from untreated control animals
  plasma levels of IL-1β versus LPS-treated animals: significant (p<0.02) lowering
  plasma levels of IL-6 versus LPS-treated animals: significant (p<0.02) lowering
  plasma levels of TNF alpha versus LPS-treated animals: significant (p<0.02) lowering
